pIC50: −log10 of the molar value.
What was measured:
[1] = molecular target: Tyrosine-protein kinase Lck (Homo sapiens, UniProt P06239); test: Inhibition of p56 Lck tyrosine kinase
[2] = molecular target: cAMP-dependent protein kinase (PKA) (Homo sapiens, UniProt P22694+P17612+P22612); test: Inhibition of Protein Kinase A (PKA); format: protein assay
[3] = molecular target: Proto-oncogene tyrosine-protein kinase Src (Homo sapiens, UniProt P12931); test: Inhibition of Src tyrosine kinase
Proto-oncogene tyrosine-protein kinase Src, sequence (P12931 2-536 limits assumed): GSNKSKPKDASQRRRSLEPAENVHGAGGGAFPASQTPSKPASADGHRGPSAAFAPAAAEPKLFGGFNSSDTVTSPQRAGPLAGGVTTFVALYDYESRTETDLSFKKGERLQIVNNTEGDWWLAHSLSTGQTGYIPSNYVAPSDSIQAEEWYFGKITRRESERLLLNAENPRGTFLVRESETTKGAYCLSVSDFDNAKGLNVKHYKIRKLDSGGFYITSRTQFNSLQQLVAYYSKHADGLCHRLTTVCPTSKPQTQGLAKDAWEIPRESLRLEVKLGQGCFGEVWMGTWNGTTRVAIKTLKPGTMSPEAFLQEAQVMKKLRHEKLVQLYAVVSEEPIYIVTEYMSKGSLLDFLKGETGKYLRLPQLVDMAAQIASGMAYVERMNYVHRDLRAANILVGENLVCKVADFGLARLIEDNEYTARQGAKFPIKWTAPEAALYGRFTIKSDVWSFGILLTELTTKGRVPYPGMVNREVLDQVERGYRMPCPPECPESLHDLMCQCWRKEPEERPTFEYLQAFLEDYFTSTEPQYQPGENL

Tyrosine-protein kinase Lck, sequence (P06239 whole entry): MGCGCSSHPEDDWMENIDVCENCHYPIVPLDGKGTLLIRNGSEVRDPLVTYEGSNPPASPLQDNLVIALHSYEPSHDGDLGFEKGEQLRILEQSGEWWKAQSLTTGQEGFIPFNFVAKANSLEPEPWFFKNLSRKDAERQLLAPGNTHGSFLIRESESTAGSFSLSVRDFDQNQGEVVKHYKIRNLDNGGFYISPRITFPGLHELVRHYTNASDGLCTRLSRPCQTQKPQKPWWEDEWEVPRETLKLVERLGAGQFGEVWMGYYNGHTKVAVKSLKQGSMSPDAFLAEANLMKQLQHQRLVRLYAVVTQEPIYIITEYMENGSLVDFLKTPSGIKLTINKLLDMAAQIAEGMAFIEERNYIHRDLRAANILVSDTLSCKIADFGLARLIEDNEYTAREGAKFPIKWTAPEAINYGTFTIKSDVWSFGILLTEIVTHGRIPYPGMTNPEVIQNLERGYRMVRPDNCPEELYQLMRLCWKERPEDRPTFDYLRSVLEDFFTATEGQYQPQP

pIC50 [1]	IC50 [2] [nM]	pIC50 [3]	Structure (SMILES)
5.77			COc1cc(C=C2C(=O)c3cc(Cl)c(Cl)cc3C2=O)cc(Br)c1O
5.30			COc1cc(C=C2C(=O)c3cc(Cl)c(Cl)cc3C2=O)ccc1O
< 5.30			O=C1/C(=C\c2cc(Br)c(O)c(Br)c2)C(=O)c2cc([N+](=O)[O-])ccc21
6.06			COc1ccc2c(c1)C(=O)/C(=C/c1cc(Br)c(O)c(OC)c1)C2=O
6.15			Nc1ccc2c(c1)C(=O)/C(=C/c1cc(Br)c(O)c(Br)c1)C2
6.51			COc1cc2c(cc1OC)C(=O)C(=Cc1cc(Cl)c(O)c(Cl)c1)C2=O
5.77			COc1cc(/C=C2\C(=O)c3ccc(N)cc3C2=O)cc(OC)c1O
6.22			Nc1ccc2c(c1)C(=O)/C(=C/c1ccc(O)c(O)c1)C2=O
6.33			Nc1cccc2c1C(=O)/C(=C\c1cc(Br)c(O)c(Br)c1)C2=O
6.00			O=C1/C(=C\c2cc(Br)c(O)c(Br)c2)C(=O)c2cc(Br)ccc21
6.13			O=C1C(=Cc2cc(Br)c(O)c(Br)c2)C(=O)c2ccccc21
6.84	10000	< 4.30	COc1ccc2c(c1)C(=O)/C(=C/c1cc(Br)c(O)c(Br)c1)C2=O
5.82			COc1ccc2c(c1)C(=O)/C(=C/c1ccc(O)c(O)c1)C2=O
5.85			O=C1/C(=C/c2cc(Cl)c(O)c(Cl)c2)C(=O)c2c1cccc2[N+](=O)[O-]
5.30			O=C1C(=Cc2ccc(O)c(O)c2)C(=O)c2ccccc21
6.96			COc1cc2c(cc1OC)C(=O)C(=Cc1cc(Br)c(O)c(Br)c1)C2=O
5.30			O=C1/C(=C/c2ccc(O)c(O)c2)C(=O)c2c1cccc2[N+](=O)[O-]
7.49	8000	6.34	Nc1ccc2c(c1)C(=O)/C(=C/c1cc(Br)c(O)c(Br)c1)C2=O
6.99	5000	5.46	Nc1ccc2c(c1)C(=O)/C(=C/c1cc(Cl)c(O)c(Cl)c1)C2=O
5.30			Nc1ccc2c(c1)C/C(=C\c1cc(Br)c(O)c(Br)c1)C2=O

Structure (SMILES)	pIC50 [1]	IC50 [2] [nM]	pIC50 [3]
O=C1/C(=C/c2ccc(O)c(O)c2)C(=O)c2cc([N+](=O)[O-])ccc21	< 5.30		
